Source: patent US20250129062A1, “AMORPHOUS SUBSTANCES, CRYSTALS, PHARMACEUTICAL COMPOSITIONS, PREPARATION METHODS AND USES OF THIOHYDANTOIN COMPOUND OR PHARMACEUTICALLY ACCEPTABLE SALT THEREOF” (SUZHOU KINTOR PHARMACEUTICALS, INC., priority 2021, published 2025)

Experiments:
[1] = High temperature stability experiment of amorphous substance (60° C.); assay type: physicochemical; settings: 60° C. in the dark
Protocol: The amorphous substance of the compound of formula I prepared in example 1 was stored at 60° C. in the dark for 30 days, and the purity percentages were detected by HPLC on day 0, day 5, day 10 and day 30, respectively.

[2] = Long-term stability experiment of amorphous substance; assay type: physicochemical; settings: for purity (HPLC): Long term
Protocol: (§1) Referring to ICH Q1A stability testing of new drug substances and products, the amorphous substance of the compound of formula I prepared in example 1 was subjected to a long-term stability experiment (experimental condition: 25±2° C., RH 60%=5%) and an accelerated stability experiment (experimental condition: 40±2° C., RH 75%=5%). The purity of the sample at different times was detected by HPLC under condition 2 to evaluate the physicochemical stability of the amorphous substance of the compound of formula I. The results were as shown in Table 18.
(§2) Condition 2: • Instruments: Agilent 1260; • Chromatographic column: C18 (150 mm×4.6 mm×3.5 μm); • column temperature: 45° C.; • Mobile phase: binary mobile phase system, mobile phase A was a 10 mM aqueous ammonium acetate solution (preparation method: ammonium acetate was added into purified water, and mixed evenly, and pH value was adjusted to 4.50±0.05 with acetic acid), mobile phase B was acetonitrile; • Elution mode: gradient elution, with specific procedures as shown in Table 17; • flow rate: 1.0 mL/min; • Injection volume: 5 μL; • Detection wavelength: 270 nm; • Data acquisition: OpenLab CDS2 software.

[3] = Distribution of compound in sebaceous glands and blood of golden hamsters after single skin application; assay type: in vivo; settings: golden hamsters, administration via skin application; listed as amorphous substance of the compound of formula I
Protocol: 6 male golden hamsters were selected for the experiment, and randomly divided evenly into 2 groups, with three golden hamsters per group. All animals were fasted overnight before administration, and were administered via a route of single application. Sampling was performed at specific time points after administration. Specific information on animal grouping, administration, sampling, etc. were detailed in Table 6.
The amorphous substance of the compound of formula I was weighed and placed in a 50 mL centrifugal tube. A mixed solvent (consisting of 75% v/v ethanol, 15% v/v glyceryl tri (2-ethylhexanoate) and 10% v/v glycerin) was added. After vortexing, heating was performed at 60° C. until the amorphous substance of the compound of formula I was completely dissolved. The amorphous substances of the compound of formula I in the two groups were prepared at 30 mg/mL and 100 mg/mL, respectively, and stored at room temperature in the dark.
After administration, blood was collected into blood collection tubes containing a heparin sodium anticoagulant at corresponding time points. Immediately after collection of whole blood, the blood collection tubes were gently shaken and placed on ice, and then centrifuged (4° C., 4000 rpm, 10 min). The supernatant plasma samples (plasma volume ≥100 μL) were collected, and stored in a refrigerator at about −80° C. The plasma samples were collected for 8 h for analysis.

[4] = Accelerated stability experiment of amorphous substance; assay type: physicochemical; settings: Acceleration
Protocol: as §1, §2

Cc1ncsc1-c1ccc(CNC(=O)[C@@H]2C[C@@H](O)CN2C(=O)[C@@H](NC(=O)COCCCCOc2ccc(-c3ccc(N4C(=S)N(c5ccc(C#N)c(C(F)(F)F)c5F)C(=O)C4(C)C)cn3)cc2)C(C)(C)C)cc1
Purity % ([1]; 0 day): 99.35% | Purity % ([1]; 5 days): 99.34% | Purity % ([1]; 10 days): 99.27% | Purity % ([1]; 30 days): 99.34% | purity (HPLC) ([2]; 3 months): 99.36% | purity (HPLC) ([2]; 6 months): 99.37% | purity (HPLC) ([2]; 9 months): 99.29% | purity (HPLC) ([2]; 25±2° C., RH 60%=5%, 0 month): 99.25% | stability ([2]; long-term, accelerated and high-temperature stability experiments): excellent stability | distribution between sebaceous glands and blood after skin application [3]: can enter sebaceous glands but cannot enter blood | purity (HPLC) ([4]; 1 months): 99.41% | purity (HPLC) ([4]; 3 months): 99.35% | purity (HPLC) ([4]; 6 months): 99.36% | purity (HPLC) ([4]; 40±2° C., RH 75%=5%, 0 month): 99.25%
